From ChEMBL document CHEMBL3525934 (Drug Metab Dispos, 2013)

Key:
Format in all cases: ADME
Liver microsome = assay: Drug level in pooled human liver microsomes treated with clozapine at 100 uM after 30 mins by HPLC analysis; conditions: 0.5 h
[1] = substrate: CN1CCN(C2=Nc3cc(Cl)ccc3Nc3ccccc32)CC1; assay: Drug metabolism in supersomes expressing human recombinant CYP2D6 assessed as enzyme-mediated N-demethyl clozapine metabolite formation after 15 mins by Michaelis-Menten equation analysis
[2] = substrate: CN1CCN(C2=Nc3cc(Cl)ccc3Nc3ccccc32)CC1; assay: Drug metabolism in supersomes expressing human recombinant CYP2D6 assessed as enzyme-mediated total GSH conjugate formation after 15 mins by Michaelis-Menten equation analysis
[3] = substrate: CN1CCN(C2=Nc3cc(Cl)ccc3Nc3ccccc32)CC1; assay: Drug metabolism in supersomes expressing human recombinant CYP2D6 assessed as enzyme-mediated clozapine N-oxide metabolite formation after 15 mins by Michaelis-Menten equation analysis

Row | Molecule | Drug metabolism (Liver microsome) | other results
1 | Clc1ccc2c(c1)N=C(N1CCNCC1)c1ccccc1N2 [N-DESMETHYLCLOZAPINE] | metabolite_detected | 
2 | NCCNC1=Nc2cc(Cl)ccc2Nc2ccccc21 | metabolite_detected | 
3 | CN1CCN(C2=Nc3c(ccc(Cl)c3O)Nc3ccccc32)CC1 | metabolite_detected | 
4 | CNCCNC1=Nc2cc(Cl)ccc2Nc2ccccc21 | metabolite_detected | 
5 | C[N+]1([O-])CCN(C2=Nc3cc(Cl)ccc3Nc3ccccc32)CC1 | metabolite_detected | 
6 | CN1CCN(C2=Nc3cc(Cl)c(O)cc3Nc3ccccc32)CC1 | metabolite_detected | 
7 | Cytochrome P450 2D6 (Homo sapiens) (protein) MGLEALVPLAVIVAIFLLLVDLMHRRQRWAARYPPGPLPLPGLGNLLHVDFQNTPYCFDQLRRRFGDVFSLQLAWTPVVVLNGLAAVREALVTHGEDTADRPPVPITQILGFGPRSQGVFLARYGPAWREQRRFSVSTLRNLGLGKKSLEQWVTEEAACLCAAFANHSGRPFRPNGLLDKAVSNVIASLTCGRRFEYDDPRFLRLLDLAQEGLKEESGFLREVLNAVPVLLHIPALAGKVLRFQKAFLTQLDELLTEHRMTWDPAQPPRDLTEAFLAEMEKAKGNPESSFNDENLRIVVADLFSAGMVTTSTTLAWGLLLMILHPDVQRRVQQEIDDVIGQVRRPEMGDQAHMPYTTAVIHEVQRFGDIVPLGVTHMTSRDIEVQGFRIPKGTTLITNLSSVLKDEAVWEKPFRFHPEHFLDAQGHFVKPEAFLPFSAGRRACLGEPLARMELFLFFTSLLQHFSFSVPTGQPRPSHHGVFAFLVSPSPYELCAVPR |  | Km [1]: 25.3 µM; Km [2]: 21.9 µM; Km [3]: 84.1 µM
